This note sets out measurements from patent publication US20220112192A1, “COMPOUNDS AND METHODS OF USE THEREOF FOR TREATMENT OF CANCER” (ARAXES PHARMA LLC, priority 2018, published 2022).

This assay addresses T1, KRAS G12C 1-169, his-tagged protein, GDP-loaded (Homo sapiens, UniProt P01116, G12C).
T1 construct: KRAS G12C 1-169, his-tagged protein, GDP-loaded
The assay can be described thus: Biochemical assay: covalent modification of KRAS G12C measured by mass spectrometry. As to conditions: modification of KRAS G12C at 10 minutes. The format is binding. How it is done: Test compounds were prepared as 10 mM stock solutions in DMSO (Fisher cat #BP-231-100). KRAS G12C 1-169, his-tagged protein, GDP-loaded was diluted to 2 μM or 0.5 μM in buffer (20 mM Hepes, 150 mM NaCl, 1 mM MgCl2).
Compounds were tested for activity as follows: Compounds were diluted to 50× final test concentration in DMSO in 96-well storage plates. Compound stock solutions were vortexed before use and observed carefully for any sign of precipitation. Dilutions were as follow: • For 100 μM final compound concentration, compounds were diluted to 5000 μM (5 μL 10 mM compound stock+5 μL DMSO and mixed well by pipetting. • For 30 μM final compound concentration, compounds were diluted to 1500 μM (3 μL 10 mM compound stock+17 μL DMSO) and mixed well by pipetting. • For 10 μM final compound concentration, compounds were diluted to 500 μM (2 μL 10 mM compound stock+38 μL DMSO) and mixed well by pipetting. 49 μL of the stock protein solution was added to each well of a 96-well PCR plate (Fisher cat #1423027). 1 μL of the diluted 50× compounds were added to appropriate wells in the PCR plate using 12-channel pipettor. Reactions were mixed carefully and thoroughly by pipetting up/down with a 200 μL multi-channel pipettor. The plate was sealed well with aluminum plate seal, and stored in drawer at room temperature for 10 minutes, 30 minutes, 2 hours or 24 hours. 5 μL of 2% formic acid (Fisher cat #A117) in de-ionized H2O was then added to each well followed by mixing with a pipette. The plate was then resealed with aluminum seal and stored on dry ice until analyzed as described below.
The above described assays are analyzed by mass spectrometry according to one of the following two procedures:
The MS instrument was set to positive polarity, 2 GHz resolution, and low mass (1700) mode and allowed to equilibrate for 30 minutes. The instrument was then calibrated, switched to acquisition mode and the appropriate method loaded.
After another 30 minute equilibration time, a blank batch (i.e., buffer) was run to ensure equipment is operating properly. The samples are thawed at 37° C. for 10 minutes, briefly centrifuged, and transferred to the bench top. Wells A1 and H12 were spiked with 1 μL 500 μM internal standard peptide, and the plates centrifuged at 2000×g for 5 minutes. The method was then run and masses of each individual well recorded.
The masses (for which integration data is desired) for each well were pasted into the platemap and exported from the analysis. Masses for the internal standards were exported as well. The data at 50 ppm was extracted for the +19 charge state, and identity of well A1 was assigned using the internal standard spike and integrated. Peak data was exported as a TOF list and the above steps are repeated individually, for the +20, 21, 22, 23, 24, and 25 charge states.
? -Exactive Assay:
The masses and peak intensities of KRAS G12C protein species were measured using a Dionex RSLCnano system (Thermo Scientific) connected to a Q Exactive Plus mass spectrometer (Thermo Scientific). […] of sample was each loaded onto a Aeris™ […] WIDEPORE C4 200 Å, LC Column 50×2.1 mm column maintained at 40° C. at a flow rate of 600 μL/min with 20% Solvent A (0.1% formic acid in H2O) and […] (0.1% formic acid in acetonitrile). The liquid chromatography conditions were 20% solvent B for 1 minute, 20% to 60% solvent B for 1.5 minutes, 60% to 90% solvent for 0.5 minute, 90% solvent B for 0.2 minute, 90% to 20% solvent B for 0.2 minute, and then equilibrated for 1.6 minutes before the following sample injection. The flow rate was maintained at 600 μL/min throughout sample analysis.
The mass spectrometer was operated in profile mode at a resolution of 17500, 5 microscans, using 50 msec max injection time and an AGC target of 1×10^6, and a full mass range from 800-1850 m/z was recorded. The HCD trapping gas was optimized for maximum sensitivity for intact proteins. […]
On to “1-(6-(6-chloro-7-(5-methyl-1H-indazol-4-yl)-2-(((S)-1-methylpyrrolidin-2-yl)methoxy)-8-(2,2,2-trifluoroethoxy)quinazolin-4-yl)-2,6-diazaspiro[3.4]octan-2-yl)prop-2-en-1-one [Compound I-75]”, for which the Binding % entry is “+++ (+++ indicates binding activity greater than 85% at 10 minutes)”.
Take “1-(6-(7-(5-methyl-1H-indazol-4-yl)-2-(((S)-1-methylpyrrolidin-2-yl)methoxy)-8-(2,2,2-trifluoroethoxy)-6-vinylquinazolin-4-yl)-2,6-diazaspiro[3.4]octan-2-yl)prop-2-en-1-one [Compound I-74]”: the Binding % entry was “++ (++ indicates binding activity from 50 to 85% at 10 minutes)”.
For the compound `C=CC(=O)C1CC2(CCN1c1nc(=O)n(-c3ccccc3C(C)C)c3cc(-c4c(C)ccc5[nH]ncc45)c(Cl)cc13)CNC2` (single isomer, unassigned) [II-5a, 4-(6-acryloyl-2,7-diazaspiro[3.5]nonan-7-yl)-6-chloro-1-(6-isopropylphenyl)-7-(5-methyl-1H-indazol-4-yl)quinazolin-2(1H)-one], the Binding % entry is “+ (+ indicates binding activity greater than 0% and up to 50% at 10 minutes)”.
Regarding `C=CC(=O)C1CC2(CCN1c1nc(=O)n(-c3ccccc3C(C)C)c3cc(-c4c(C)ccc5[nH]ncc45)c(Cl)cc13)CNC2` (single isomer, unassigned) [II-5b, 4-(6-acryloyl-2,7-diazaspiro[3.5]nonan-7-yl)-6-chloro-1-(6-isopropylphenyl)-7-(5-methyl-1H-indazol-4-yl)quinazolin-2(1H)-one], the Binding % entry is listed as “++ (++ indicates binding activity from 50 to 85% at 10 minutes)”.
For `C=CC(=O)N1CC2(CCN(c3nc(OC[C@@H]4CCCN4C)nc4c(F)c(-c5c(C)ccc6cnn(C)c56)c(Cl)cc34)C2)C1` [Compound I-1, 1-(6-(6-chloro-7-(1,6-dimethyl-1H-indazol-7-yl)-8-fluoro-2-(((S)-1-methylpyrrolidin-2-yl)methoxy)quinazolin-4-yl)-2,6-diazaspiro[3.4]octan-2-yl)prop-2-en-1-one], the Binding % entry is “++ (++ indicates binding activity from 50 to 85% at 10 minutes)”.
`C=CC(=O)N1CC2(CCN(c3nc(OC[C@@H]4CCCN4C)nc4c(F)c(-c5c(C)ccc6cnn(C)c56)c(Cl)cc34)CC2)C1` [Compound I-2, 1-(7-(6-chloro-7-(1,6-dimethyl-1H-indazol-7-yl)-8-fluoro-2-(((S)-1-methylpyrrolidin-2-yl)methoxy)quinazolin-4-yl)-2,7-diazaspiro[3.5]nonan-2-yl)prop-2-en-1-one]: the Binding % result is given as “+++ (+++ indicates binding activity greater than 85% at 10 minutes)”.
In the case of `C=CC(=O)N1CC2(CCN(c3nc(OC[C@@H]4CCCN4C)nc4c(F)c(-c5c(C)ccc6cn[nH]c56)c(Cl)cc34)CC2)C1` [Compound I-3, 1-(7-(6-chloro-8-fluoro-7-(6-methyl-1H-indazol-7-yl)-2-(((S)-1-methylpyrrolidin-2-yl)methoxy)quinazolin-4-yl)-2,7-diazaspiro[3.5]nonan-2-yl)prop-2-en-1-one], the Binding % entry is “+++ (+++ indicates binding activity greater than 85% at 10 minutes)”.
As to `C=CC(=O)N1CC2(CCN(c3nc(OC[C@@H]4CCCN4C)nc4c(F)c(-c5c(C)ccc6[nH]ncc56)c(Cl)cc34)CC2)C1` [Compound I-6, 1-(7-(6-chloro-8-fluoro-7-(5-methyl-1H-indazol-4-yl)-2-(((S)-1-methylpyrrolidin-2-yl)methoxy)quinazolin-4-yl)-2,7-diazaspiro[3.5]nonan-2-yl)prop-2-en-1-one], the Binding % entry is reported as “+++ (+++ indicates binding activity greater than 85% at 10 minutes)”.
Then `C=CC(=O)N1CC2(CCN(c3c(Cl)c(-c4c(C)ccc5[nH]ncc45)c(OCC(F)(F)F)c4nc(OC[C@@H]5CCCN5C)ncc34)C(C)C2)C1` (stereo partly drawn) [Compound I-76, 1-(7-(6-chloro-7-(5-methyl-1H-indazol-4-yl)-2-(((S)-1-methylpyrrolidin-2-yl)methoxy)-8-(2,2,2-trifluoroethoxy)quinazolin-5-yl)-6-methyl-2,7-diazaspiro[3.5]nonan-2-yl)prop-2-en-1-one], with “++ (++ indicates binding activity from 50 to 85% at 10 minutes)”.
